What was measured:
Assay in all cases: relative viability (nuclei count vs DMSO), 5 days (fraction); higher = more cells survive
[1] = compound: CCN(CCO)CCCC(C)Nc1ccnc2cc(Cl)ccc12 [Hydroxychloroquine] + O=C(c1cc(Cc2n[nH]c(=O)c3ccccc23)ccc1F)N1CCN(C(=O)C2CC2)CC1 [Olaparib] (partner 8 µM)
Summary of the method: (§1)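 The day after seeding in 1536-well plates, lung cancer cell lines were treated by pin tool with a single drug, or with a fixed anchor-drug dose together with five library-drug doses (not always all listed) in √10 steps. After 5 days, a combined fix-and-stain solution (final 0.05% Triton X-100, 1% formaldehyde, 1 ug/ml Hoechst) was added. Nuclei counted on 4× images gave relative viability as treated counts over vehicle counts, reported as the median of duplicate plates.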

[2] = compound: CCN(CCO)CCCC(C)Nc1ccnc2cc(Cl)ccc12 [Hydroxychloroquine] + Nc1nc2[nH]cc(CCc3ccc(C(=O)N[C@@H](CCC(=O)O)C(=O)O)cc3)c2c(=O)[nH]1 [Pemetrexed] (partner 0.2 µM)
Summary of the method: as §1

[3] = compound: CCN(CCO)CCCC(C)Nc1ccnc2cc(Cl)ccc12 [Hydroxychloroquine] + O=C(CCCCCCC(=O)Nc1ccccc1)NO [Vorinostat] (partner 1 µM)
Summary of the method: as §1

[4] = compound: CCN(CCO)CCCC(C)Nc1ccnc2cc(Cl)ccc12 [Hydroxychloroquine] + C[C@]1(O)C[C@@H](c2nc(-c3ccc4ccc(-c5ccccc5)nc4c3)c3c(N)nccn32)C1 [Linsitinib] (partner 1 µM)
Summary of the method: as §1

With NCI-H2009 the relative viability ([1]; first compound 0.5 µM) was 0.672, the relative viability ([1]; first compound 1.581 µM) was 0.72 and the relative viability ([1]; first compound 5 µM) was 0.7. It also gave a relative viability ([1]; first compound 15.81 µM) of 0.698, a relative viability ([1]; first compound 50 µM) of 0.695 and a relative viability ([2]; first compound 0.5 µM) of 1.07. It also gave a relative viability ([2]; first compound 1.581 µM) of 0.991, a relative viability ([2]; first compound 5 µM) of 1.02 and a relative viability ([2]; first compound 15.81 µM) of 1.07. For the same cell line, the relative viability ([2]; first compound 50 µM) was 1.01, the relative viability ([3]; first compound 0.5 µM) was 0.764 and the relative viability ([3]; first compound 1.581 µM) was 0.718. It also gave a relative viability ([3]; first compound 5 µM) of 0.75, a relative viability ([3]; first compound 15.81 µM) of 0.747 and a relative viability ([3]; first compound 50 µM) of 0.729. The relative viability ([4]; first compound 0.5 µM) was 1.2, the relative viability ([4]; first compound 1.581 µM) was 1.2 and the relative viability ([4]; first compound 5 µM) was 1.28. For the same cell line, the relative viability ([4]; first compound 15.81 µM) was 1.23 and the relative viability ([4]; first compound 50 µM) was 1.14.
In the case of NCI-H2023, the relative viability ([1]; first compound 0.5 µM) is reported as 0.566, the relative viability ([1]; first compound 1.581 µM) is reported as 0.405 and the relative viability ([1]; first compound 5 µM) is reported as 0.501. For the same cell line, the relative viability ([1]; first compound 15.81 µM) was 0.479, the relative viability ([1]; first compound 50 µM) was 0.466 and the relative viability ([2]; first compound 0.5 µM) was 0.267. The relative viability ([2]; first compound 1.581 µM) was 0.22, the relative viability ([2]; first compound 5 µM) was 0.246 and the relative viability ([2]; first compound 15.81 µM) was 0.238. For the same cell line, the relative viability ([2]; first compound 50 µM) was 0.295, the relative viability ([3]; first compound 0.5 µM) was 0.788 and the relative viability ([3]; first compound 1.581 µM) was 0.574. It also gave a relative viability ([3]; first compound 5 µM) of 0.687, a relative viability ([3]; first compound 15.81 µM) of 0.706 and a relative viability ([3]; first compound 50 µM) of 0.85. The relative viability ([4]; first compound 0.5 µM) was 0.618, the relative viability ([4]; first compound 1.581 µM) was 0.65 and the relative viability ([4]; first compound 5 µM) was 0.697. It also gave a relative viability ([4]; first compound 15.81 µM) of 0.643 and a relative viability ([4]; first compound 50 µM) of 0.728.
Cell Line NCI-H2085 has a relative viability ([1]; first compound 0.5 µM) of 0.74, a relative viability ([1]; first compound 1.581 µM) of 0.769 and a relative viability ([1]; first compound 5 µM) of 0.817. It also gave a relative viability ([1]; first compound 15.81 µM) of 0.739, a relative viability ([1]; first compound 50 µM) of 0.774 and a relative viability ([2]; first compound 0.5 µM) of 0.885. For the same cell line, the relative viability ([2]; first compound 1.581 µM) was 0.773, the relative viability ([2]; first compound 5 µM) was 0.838 and the relative viability ([2]; first compound 15.81 µM) was 0.809. It also gave a relative viability ([2]; first compound 50 µM) of 0.9, a relative viability ([3]; first compound 0.5 µM) of 0.853 and a relative viability ([3]; first compound 1.581 µM) of 0.63. It also gave a relative viability ([3]; first compound 5 µM) of 0.822, a relative viability ([3]; first compound 15.81 µM) of 0.847 and a relative viability ([3]; first compound 50 µM) of 0.873. The relative viability ([4]; first compound 0.5 µM) was 0.891, the relative viability ([4]; first compound 1.581 µM) was 0.788 and the relative viability ([4]; first compound 5 µM) was 0.938. For the same cell line, the relative viability ([4]; first compound 15.81 µM) was 0.941 and the relative viability ([4]; first compound 50 µM) was 0.883.
NCI-H2087 gave a relative viability ([1]; first compound 0.5 µM) of 0.596, a relative viability ([1]; first compound 1.581 µM) of 0.709 and a relative viability ([1]; first compound 5 µM) of 0.683. It also gave a relative viability ([1]; first compound 15.81 µM) of 0.756, a relative viability ([1]; first compound 50 µM) of 0.511 and a relative viability ([2]; first compound 0.5 µM) of 0.634. It also gave a relative viability ([2]; first compound 1.581 µM) of 0.669, a relative viability ([2]; first compound 5 µM) of 0.7 and a relative viability ([2]; first compound 15.81 µM) of 0.709. It also gave a relative viability ([2]; first compound 50 µM) of 0.771, a relative viability ([3]; first compound 0.5 µM) of 0.719 and a relative viability ([3]; first compound 1.581 µM) of 0.74. The relative viability ([3]; first compound 5 µM) was 0.778, the relative viability ([3]; first compound 15.81 µM) was 0.798 and the relative viability ([3]; first compound 50 µM) was 0.609. The relative viability ([4]; first compound 0.5 µM) was 1.01, the relative viability ([4]; first compound 1.581 µM) was 0.887 and the relative viability ([4]; first compound 5 µM) was 0.893. The relative viability ([4]; first compound 15.81 µM) was 0.951 and the relative viability ([4]; first compound 50 µM) was 0.965.
With NCI-H2126 the relative viability ([1]; first compound 0.5 µM) was 0.98, the relative viability ([1]; first compound 1.581 µM) was 0.921 and the relative viability ([1]; first compound 5 µM) was 0.9. For the same cell line, the relative viability ([1]; first compound 15.81 µM) was 0.975, the relative viability ([1]; first compound 50 µM) was 0.926 and the relative viability ([2]; first compound 0.5 µM) was 0.709. It also gave a relative viability ([2]; first compound 1.581 µM) of 0.636, a relative viability ([2]; first compound 5 µM) of 0.666 and a relative viability ([2]; first compound 15.81 µM) of 0.653. It also gave a relative viability ([2]; first compound 50 µM) of 0.716, a relative viability ([3]; first compound 0.5 µM) of 0.834 and a relative viability ([3]; first compound 1.581 µM) of 0.728. For the same cell line, the relative viability ([3]; first compound 5 µM) was 0.749, the relative viability ([3]; first compound 15.81 µM) was 0.733 and the relative viability ([3]; first compound 50 µM) was 0.897. The relative viability ([4]; first compound 0.5 µM) was 0.694, the relative viability ([4]; first compound 1.581 µM) was 0.634 and the relative viability ([4]; first compound 5 µM) was 0.681. For the same cell line, the relative viability ([4]; first compound 15.81 µM) was 0.649 and the relative viability ([4]; first compound 50 µM) was 0.747.
NCI-H2228 gave a relative viability ([1]; first compound 0.5 µM) of 0.716, a relative viability ([1]; first compound 1.581 µM) of 0.75 and a relative viability ([1]; first compound 5 µM) of 0.575. It also gave a relative viability ([1]; first compound 15.81 µM) of 0.653, a relative viability ([1]; first compound 50 µM) of 0.623 and a relative viability ([2]; first compound 0.5 µM) of 0.329. It also gave a relative viability ([2]; first compound 1.581 µM) of 0.352, a relative viability ([2]; first compound 5 µM) of 0.348 and a relative viability ([2]; first compound 15.81 µM) of 0.311. For the same cell line, the relative viability ([2]; first compound 50 µM) was 0.331, the relative viability ([3]; first compound 0.5 µM) was 0.5 and the relative viability ([3]; first compound 1.581 µM) was 0.594. For the same cell line, the relative viability ([3]; first compound 5 µM) was 0.457, the relative viability ([3]; first compound 15.81 µM) was 0.515 and the relative viability ([3]; first compound 50 µM) was 0.839. For the same cell line, the relative viability ([4]; first compound 0.5 µM) was 0.958, the relative viability ([4]; first compound 1.581 µM) was 0.647 and the relative viability ([4]; first compound 5 µM) was 0.706. It also gave a relative viability ([4]; first compound 15.81 µM) of 0.632 and a relative viability ([4]; first compound 50 µM) of 0.703.
Work on NCI-H2347 yielded a relative viability ([1]; first compound 0.5 µM) of 0.594, a relative viability ([1]; first compound 1.581 µM) of 0.563 and a relative viability ([1]; first compound 5 µM) of 0.588. For the same cell line, the relative viability ([1]; first compound 15.81 µM) was 0.608, the relative viability ([1]; first compound 50 µM) was 0.541 and the relative viability ([2]; first compound 0.5 µM) was 0.481. For the same cell line, the relative viability ([2]; first compound 1.581 µM) was 0.401, the relative viability ([2]; first compound 5 µM) was 0.444 and the relative viability ([2]; first compound 15.81 µM) was 0.413. It also gave a relative viability ([2]; first compound 50 µM) of 0.452, a relative viability ([3]; first compound 0.5 µM) of 0.663 and a relative viability ([3]; first compound 1.581 µM) of 0.456. The relative viability ([3]; first compound 5 µM) was 0.604, the relative viability ([3]; first compound 15.81 µM) was 0.639 and the relative viability ([3]; first compound 50 µM) was 0.58. The relative viability ([4]; first compound 0.5 µM) was 1.05, the relative viability ([4]; first compound 1.581 µM) was 0.84 and the relative viability ([4]; first compound 5 µM) was 0.932. It also gave a relative viability ([4]; first compound 15.81 µM) of 0.994 and a relative viability ([4]; first compound 50 µM) of 0.895.
Cell Line NCI-H2405 has a relative viability ([1]; first compound 0.5 µM) of 0.934, a relative viability ([1]; first compound 1.581 µM) of 0.87 and a relative viability ([1]; first compound 5 µM) of 0.836. The relative viability ([1]; first compound 15.81 µM) was 0.886, the relative viability ([1]; first compound 50 µM) was 0.861 and the relative viability ([2]; first compound 0.5 µM) was 1.07. It also gave a relative viability ([2]; first compound 1.581 µM) of 1.05, a relative viability ([2]; first compound 5 µM) of 0.984 and a relative viability ([2]; first compound 15.81 µM) of 0.515. For the same cell line, the relative viability ([2]; first compound 50 µM) was 1.03, the relative viability ([3]; first compound 0.5 µM) was 1.05 and the relative viability ([3]; first compound 1.581 µM) was 0.963. For the same cell line, the relative viability ([3]; first compound 5 µM) was 0.937, the relative viability ([3]; first compound 15.81 µM) was 1.03 and the relative viability ([3]; first compound 50 µM) was 0.999. It also gave a relative viability ([4]; first compound 0.5 µM) of 0.923, a relative viability ([4]; first compound 1.581 µM) of 0.806 and a relative viability ([4]; first compound 5 µM) of 0.92. For the same cell line, the relative viability ([4]; first compound 15.81 µM) was 0.98 and the relative viability ([4]; first compound 50 µM) was 0.968.

From the supplement of paper PMC10307832
